The values below come from patent publication US10150760B2, “Compounds for use in preparing heterocyclic triazole agonists of the APJ receptor” (AMGEN INC., priority 2016, dated 2018).

What is called pEC50 is the negative decadic logarithm of the EC50, by convention in mol/L.

SMILES strings stand for the structures. pEC50: −log10 of the molar value.

The target of this experiment is human APJ receptor (Homo sapiens (Human), UniProt P35414). In words: [35S]GTPγS binding assay on membranes from CHO cells stably expressing human APJ receptor. As to conditions: read-out: Activity hAPJ SPA EC50 IP. In kind it is biochemical. In short, it runs like this: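 Agonist-driven [35S]GTPγS (0.2 nM) binding was measured over 90 min at room temperature on human APJ-expressing CHO membranes with bead capture, in buffer containing 3 μM GDP, 200 mM NaCl and 5 mM MgCl2 (pH 7.5). Excess unlabelled GTPγS (100 μM) gave nonspecific signal; EC50 from non-linear fits.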
human APJ receptor, sequence (P35414 whole entry): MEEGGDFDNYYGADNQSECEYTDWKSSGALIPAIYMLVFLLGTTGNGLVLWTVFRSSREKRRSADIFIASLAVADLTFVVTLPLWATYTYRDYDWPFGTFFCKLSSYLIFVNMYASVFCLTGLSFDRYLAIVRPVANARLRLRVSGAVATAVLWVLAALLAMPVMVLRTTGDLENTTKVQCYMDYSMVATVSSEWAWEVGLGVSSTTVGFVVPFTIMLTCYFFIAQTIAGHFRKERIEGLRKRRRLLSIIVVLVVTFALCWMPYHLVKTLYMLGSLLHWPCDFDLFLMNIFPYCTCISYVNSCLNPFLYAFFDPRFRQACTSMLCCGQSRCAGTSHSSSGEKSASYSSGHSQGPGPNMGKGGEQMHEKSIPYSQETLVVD
A general note: GTPγS resists hydrolysis and so accumulates on activated G proteins.
Turning to `COc1ncnc(OC)c1-n1c(NS(=O)(=O)[C@@H](C)[C@H](OC)c2ncc(Cl)cn2)nnc1C1CCCOC1` (single isomer, unassigned) [Example 91.0, (1R,2S)-1-(5-chloropyrimidin-2-yl)-N-(4-(4,6-dimethoxypyrimidin-5-yl)-5-((S)-tetrahydro-2H-pyran-3-yl)-4H-1,2,4-triazol-3-yl)-1-methoxypropane-2-sulfonamide or (1R,2S)-1-(5-chloropyrimidin-2-yl)-N-(4-(4,6-dimethoxypyrimidin-5-yl)-5-((R)-tetrahydro-2H-pyran-3-yl)-4H-1,2,4-triazol-3-yl)-1-methoxypropane-2-sulfonamide], the pEC50 is 6.54.

For `COc1ncnc(OC)c1-n1c(NS(=O)(=O)[C@@H](C)[C@H](OC)c2ncc(Cl)cn2)nnc1[C@H]1CCCOC1` (single isomer, unassigned) [Example 92.0, (1R,2S)-1-(5-chloropyrimidin-2-yl)-N-(4-(4,6-dimethoxypyrimidin-5-yl)-5-((S)-tetrahydro-2H-pyran-3-yl)-4H-1,2,4-triazol-3-yl)-1-methoxypropane-2-sulfonamide or (1R,2S)-1-(5-chloropyrimidin-2-yl)-N-(4-(4,6-dimethoxypyrimidin-5-yl)-5-((R)-tetrahydro-2H-pyran-3-yl)-4H-1,2,4-triazol-3-yl)-1-methoxypropane-2-sulfonamide], the negative logarithm of the EC50 (pEC50) is 7.38.

Take `COc1ncnc(OC)c1-n1c(NS(=O)(=O)[C@@H](C)[C@H](C)c2ncc(Cl)cn2)nnc1[C@H]1CCOC1` (single isomer, unassigned) [Example 93.0, (2S,3R)-3-(5-chloropyrimidin-2-yl)-N-(4-(4,6-dimethoxypyrimidin-5-yl)-5-((R)-tetrahydrofuran-3-yl)-4H-1,2,4-triazol-3-yl)butane-2-sulfonamide or (2S,3R)-3-(5-chloropyrimidin-2-yl)-N-(4-(4,6-dimethoxypyrimidin-5-yl)-5-((S)-tetrahydrofuran-3-yl)-4H-1,2,4-triazol-3-yl)butane-2-sulfonamide]: the negative logarithm of the EC50 (pEC50) is 6.77.

Consider `COc1ncnc(OC)c1-n1c(NS(=O)(=O)[C@@H](C)[C@H](C)c2ncc(Cl)cn2)nnc1[C@H]1CCOC1` (single isomer, unassigned) [Example 94.0, (2S,3R)-3-(5-chloropyrimidin-2-yl)-N-(4-(4,6-dimethoxypyrimidin-5-yl)-5-((R)-tetrahydrofuran-3-yl)-4H-1,2,4-triazol-3-yl)butane-2-sulfonamide or (2S,3R)-3-(5-chloropyrimidin-2-yl)-N-(4-(4,6-dimethoxypyrimidin-5-yl)-5-((S)-tetrahydrofuran-3-yl)-4H-1,2,4-triazol-3-yl)butane-2-sulfonamide], for which the pEC50 is 6.72.

Take `COc1ncnc(OC)c1-n1c(NS(=O)(=O)[C@@H](C)[C@@H](OC(C)C)c2ncc(C)cn2)nnc1[C@H]1CCCO1` (single isomer, unassigned) [Example 95.0, (1S,2S)-N-(4-(4,6-dimethoxypyrimidm-5-yl)-5-((S)-tetrahydrofuran-2-yl)-4H-1,2,4-triazol-3-yl)-1-isopropoxy-1-(5-methylpyrimidin-2-yl)propane-2-sulfonamide or (1S,2S)-N-(4-(4,6-dimethoxypyrimidin-5-yl)-5-((R)-tetrahydrofuran-2-yl)-4H-1,2,4-triazol-3-yl)-1-isopropoxy-1-(5-methylpyrimidin-2-yl)propane-2-sulfonamide]: the pEC50 is 7.82.

Turning to `COc1ncnc(OC)c1-n1c(NS(=O)(=O)[C@@H](C)[C@@H](OC(C)C)c2ncc(C)cn2)nnc1[C@H]1CCCO1` (single isomer, unassigned) [Example 96.0, (1S,2S)-N-(4-(4,6-dimethoxypyrimidm-5-yl)-5-((S)-tetrahydrofuran-2-yl)-4H-1,2,4-triazol-3-yl)-1-isopropoxy-1-(5-methylpyrimidin-2-yl)propane-2-sulfonamide or (1S,2S)-N-(4-(4,6-dimethoxypyrimidin-5-yl)-5-((R)-tetrahydrofuran-2-yl)-4H-1,2,4-triazol-3-yl)-1-isopropoxy-1-(5-methylpyrimidin-2-yl)propane-2-sulfonamide], the pEC50 is 6.72.

Regarding `COc1cccc(OC)c1-n1c(NS(=O)(=O)[C@@H](C)[C@@H](OC(C)C)c2ncc(C)cn2)nnc1[C@H]1CCCO1` (single isomer, unassigned) [Example 98.0, (1S,2S)-N-(4-(2,6-dimethoxyphenyl)-5-((S)-tetrahydrofuran-2-yl)-4H-1,2,4-triazol-3-yl)-1-isopropoxy-1-(5-methylpyrimidin-2-yl)propane-2-sulfonamide or (1S,2S)-N-(4-(2,6-dimethoxyphenyl)-5-((R)-tetrahydrofuran-2-yl)-4H-1,2,4-triazol-3-yl)-1-isopropoxy-1-(5-methylpyrimidin-2-yl)propane-2-sulfonamide], the pEC50 was 9.11.

With `COc1cccc(OC)c1-n1c(NS(=O)(=O)[C@@H](C)[C@@H](OC(C)C)c2ncc(C)cn2)nnc1[C@H]1CCOC1` (single isomer, unassigned) [Example 99.0, (1S,2S)-N-(4-(2,6-dimethoxyphenyl)-5-((R)-tetrahydrofuran-3-yl)-4H-1,2,4-triazol-3-yl)-1-isopropoxy-1-(5-methylpyrimidin-2-yl)propane-2-sulfonamide or (1S,2S)-N-(4-(2,6-dimethoxyphenyl)-5-((S)-tetrahydrofuran-3-yl)-4H-1,2,4-triazol-3-yl)-1-isopropoxy-1-(5-methylpyrimidin-2-yl)propane-2-sulfonamide], the pEC50 was 8.60.

Regarding `COc1cccc(OC)c1-n1c(NS(=O)(=O)[C@@H](C)[C@@H](OC(C)C)c2ncc(C)cn2)nnc1[C@H]1CCOC1` (single isomer, unassigned) [Example 100.0, (1S,2S)-N-(4-(2,6-dimethoxyphenyl)-5-((R)-tetrahydrofuran-3-yl)-4H-1,2,4-triazol-3-yl)-1-isopropoxy-1-(5-methylpyrimidin-2-yl)propane-2-sulfonamide or (1S,2S)-N-(4-(2,6-dimethoxyphenyl)-5-((S)-tetrahydrofuran-3-yl)-4H-1,2,4-triazol-3-yl)-1-isopropoxy-1-(5-methylpyrimidin-2-yl)propane-2-sulfonamide], the negative logarithm of the EC50 (pEC50) was 7.62.

For the compound `COc1ncnc(OC)c1-n1c(NS(=O)(=O)[C@@H](C)[C@H](C)c2ncc(Cl)cn2)nnc1[C@H]1CCCOC1` (single isomer, unassigned) [Example 101.0, (2S,3R)-3-(5-chloropyrimidin-2-yl)-N-(4-(4,6-dimethoxypyrimidin-5-yl)-5-((S)-tetrahydro-2H-pyran-3-yl)-4H-1,2,4-triazol-3-yl)butane-2-sulfonamide or (2S,3R)-3-(5-chloropyrimidin-2-yl)-N-(4-(4,6-dimethoxypyrimidin-5-yl)-5-((R)-tetrahydro-2H-pyran-3-yl)-4H-1,2,4-triazol-3-yl)butane-2-sulfonamide], the pEC50 was 6.59.

Turning to `COc1ncnc(OC)c1-n1c(NS(=O)(=O)[C@@H](C)[C@H](C)c2cnc(C)cn2)nnc1[C@H]1CCCO1` (single isomer, unassigned) [Example 104.0, (2S,3R)-N-(4-(4,6-dimethoxypyrimidin-5-yl)-5-((S)-tetrahydrofuran-2-yl)-4H-1,2,4-triazol-3-yl)-3-(5-methylpyrazin-2-yl)butane-2-sulfonamide or (2S,3R)-N-(4-(4,6-dimethoxypyrimidin-5-yl)-5-((R)-tetrahydrofuran-2-yl)-4H-1,2,4-triazol-3-yl)-3-(5-methylpyrazin-2-yl)butane-2-sulfonamide], the negative-log EC50 (pEC50) is 6.48.

`COc1ncnc(OC)c1-n1c(NS(=O)(=O)[C@@H](C)[C@H](C)c2cnc(C)cn2)nnc1[C@H]1CCCO1` (single isomer, unassigned) [Example 105.0, (2S,3R)-N-(4-(4,6-dimethoxypyrimidin-5-yl)-5-((S)-tetrahydrofuran-2-yl)-4H-1,2,4-triazol-3-yl)-3-(5-methylpyrazin-2-yl)butane-2-sulfonamide or (2S,3R)-N-(4-(4,6-dimethoxypyrimidin-5-yl)-5-((R)-tetrahydrofuran-2-yl)-4H-1,2,4-triazol-3-yl)-3-(5-methylpyrazin-2-yl)butane-2-sulfonamide]: the pEC50 was 7.06.

Turning to `COc1cccc(OC)c1-n1c(NS(=O)(=O)[C@@H](C)[C@H](C)c2cnc(C)cn2)nnc1[C@H]1CCCCO1` (single isomer, unassigned) [Example 106.0, (2S,3R)-N-(4-(2,6-dimethoxyphenyl)-5-((S)-tetrahydro-2H-pyran-2-yl)-4H-1,2,4-triazol-3-yl)-3-(5-methylpyrazin-2-yl)butane-2-sulfonamide or (2S,3R)-N-(4-(2,6-dimethoxyphenyl)-5-((R)-tetrahydro-2H-pyran-2-yl)-4H-1,2,4-triazol-3-yl)-3-(5-methylpyrazin-2-yl)butane-2-sulfonamide], the pEC50 was 7.28.

As to `COc1cccc(OC)c1-n1c(NS(=O)(=O)[C@@H](C)[C@H](C)c2cnc(C)cn2)nnc1[C@H]1CCCCO1` (single isomer, unassigned) [Example 107.0, (2S,3R)-N-(4-(2,6-dimethoxyphenyl)-5-((S)-tetrahydro-2H-pyran-2-yl)-4H-1,2,4-triazol-3-yl)-3-(5-methylpyrazin-2-yl)butane-2-sulfonamide or (2S,3R)-N-(4-(2,6-dimethoxyphenyl)-5-((R)-tetrahydro-2H-pyran-2-yl)-4H-1,2,4-triazol-3-yl)-3-(5-methylpyrazin-2-yl)butane-2-sulfonamide], the negative-log EC50 (pEC50) was 8.29.

For the compound `COc1cccc(OC)c1-n1c(NS(=O)(=O)[C@@H](C)[C@H](OC)c2ncc(Cl)cn2)nnc1[C@H]1CCC(C)(C)O1` (single isomer, unassigned) [Example 108.0, (1R,2S)-1-(5-chloropyrimidin-2-yl)-N-(4-(2,6-dimethoxyphenyl)-5-((S)-5,5-dimethyltetrahydrofuran-2-yl)-4H-1,2,4-triazol-3-yl)-1-methoxypropane-2-sulfonamide or (1R,2S)-1-(5-chloropyrimidin-2-yl)-N-(4-(2,6-dimethoxyphenyl)-5-((R)-5,5-dimethyltetrahydrofuran-2-yl)-4H-1,2,4-triazol-3-yl)-1-methoxypropane-2-sulfonamide], the pEC50 was 7.60.
